Entries after “also recorded” stand apart in the source; their conditions may differ.
Tests used:
C57-BL6 mice = test: Delay fear conditioning, auditory-cued test after tibial surgery; assay type: in vivo; details: wild type mice, surgery with IL-1Ra pre-treatment
Method: Fear conditioning tests. Mice were conditioned 30 minutes or 3 days prior to intervention by training with two cycles of tone and foot-shock pairings. In delay fear conditioning a foot-shock was administered during the last 2 seconds of each 20 seconds-lasting tone.
In trace fear conditioning, the foot-shock onset, lasting 2 seconds as in the previous paradigm, followed a 20-second gap after each tone termination. Three days after conditioning, mice were placed back in the original conditioning chamber for 270 seconds, where no tone or shock were presented, to assess recall of contextual fear memory. After 3 h mice were placed in a novel environment (different context from training) to test for auditory-cued memory. Following an initial baseline period of 135 seconds during which freezing was scored in absence of noise, the auditory cue was presented for the final 135 seconds of the test, and freezing was again recorded. (For further details please refer to supplemental methods).
The behavioral study was conducted using a conditioning chamber (Med. Associates Inc., St. Albans, VT, USA). The back- and the side-walls of the chamber were made of aluminium, whereas the front door and the ceiling were of transparent Plexiglas. The floor of the chamber consisted of 36 stainless steel rods (1 mm diameter) spaced 0.5 cm apart (center-to-center). […]

IL-1β = test: Plasma (systemic) IL-1β by ELISA after tibial surgery; assay type: in vivo; details: wild type mice, minocycline 40 mg/kg i.p., enrofloxacin 10 mg/kg or IL-1Ra 100 mg/kg given prior to surgery, vs surgery alone
Excerpt: Mice were subjected to an open tibial fracture of the left hind paw with intramedullary fixation in aseptic conditions under general anaesthesia with isoflurane and analgesia with buprenorphineas previously described^18. Other groups of animals were not subjected to any intervention (naïve), or received anesthetic/analgesia alone, or underwent surgery with concurrent administration of minocycline, enrofloxacin, or IL-1 receptor antagonist (IL-1Ra). (For further details please refer to supplemental methods).
IL-6, TNF-α and IL-1β were measured by ELISA^19 (Biosource, CA; Bender Medsystem, CA, respectively). Hippocampal IL-1β was measured by ELISA (Bender Medsystem, CA), as previously described^20. To confirm reliability of dilution linearity and spike recovery cytokine measurement were also performed in mice in which inflammation was induced with i.p. LPS (0111:B4, Invivogen, CA). (For further details please refer to supplemental methods).
Mice were randomly assigned to the following groups: surgery under general anesthesia (S), surgery under general anesthesia plus minocycline (M), surgery under general anesthesia plus enrofloxacin (E), surgery under general anesthesia plus interleukin-1 receptor antagonist (IL-1Ra) (I), surgery in IL1R^−/− mice under general anesthesia (K), general anesthesia without surgery (A), and no intervention (naïve wild-type, or naïve IL1R^−/−). Under aseptic conditions, groups of mice were subjected to an open tibial fracture of the left hind paw with an intramedullary fixation as previously described^2. Briefly, isoflurane (Abbot Laboratories Ltd., Queensborough, Kent, UK) 2.1% in air (1.5 MAC)^3 and buprenorphine (Reckitt Benckiser Healthcare Ltd, Hull, UK) 0.1 mg/kg subcutaneously (sc), were given to provide both surgical anesthesia and extended post-operative analgesia for the surgical intervention and post-surgical recovery. After shaving the overlying skin and disinfecting with chlorhexidine gluconate 0.5% and isopropyl alcohol 70% (PDI, Orangeburg, NY, USA) a fracture of the tibial shaft was created under direct vision. […]

IL-1Ra: IL-1 receptor antagonist (Amgen, Anakinra)
Freezing in the auditory-cued test after delay fear conditioning (C57-BL6 mice): showed no difference; also recorded: There was no difference between the groups
Plasma IL-1β after surgery, effect of treatment (IL-1β): did not increase circulating IL-1β; also recorded: Surgery did not induce a significant increase of IL-1β at 24 h
